Literature values, collected in US9517268B2, “Process for producing inorganic particulate material” (MERCK PATENT GMBH, priority 2011, dated 2016).
In brackets after ≈: the same amount, converted by molar mass.

Details: pH 7

SMILES: CCC(C)n1ncn(-c2ccc(N3CCN(c4ccc(OCC5COC(Cn6cncn6)(c6ccc(Cl)cc6Cl)O5)cc4)CC3)cc2)c1=O (stereo not shown) [Itraconazole]
- solubility in aqueous solutions: 1 ng/mL (≈ 1.42 nM)
